Results published in patent publication US11980594B2, “Composition and method for treating a drug-resistant cancer” (NOVELWISE PHARMACEUTICAL CORPORATION, priority 2021, dated 2024).
Several values for one entry are separate records, joined by “and”; a condition that tells them apart may be missing. Equal values may be shown once.

Test system: GBM-R cells (U87MG-R and A172-R)
Assay: GBM-R cell viability time course (FIG. 2F)
Type: cell-based, human
Settings: BMX 10 μM alone, FIG. 2F (24, 48, and 72 hrs)
Protocol: (A) Chemical structure of BMX. (B) Cell viability of GBM and GBM-R cell lines after treatment with 0.5, 10, 15, 30, or 50 μM BMX. (C) Cell viability of GBM and GBM-R cell lines after treatment with 0.25, 50, 100, 200, 400, or 800 μM TMZ. (D) GBM and GBM-R cell viability after treatment with 10 μM BMX with or without TMZ at various concentrations (0.25, 50, 100, 200, 400, or 800 μM) for 24 hrs. (E) GBM and GBM-R cell viability after treatment with 50 μM TMZ with or without BMX at various concentrations (0.5, 10, 15, 30, or 50 μM) for 24 hrs. (F) GBM-R cell viability after treatment with 50 μM TMZ with or without 10 μM BMX for 24, 48, and 72 hrs. (G) Colony formation assay of GBM and GBM-R cell lines with BMX (0, 5, or 10 μM) with or without TMZ (50 μM) for 14 days. Data are represented as means±SEM from three experiments. *p<0.05 vs. control (A172 and U87MG); #p<0.05 vs. (A172-R and U87MG-R).
We plated 3000 GBM cells per well in 96-well plates and allowed them to adhere overnight. To validate cell line responsiveness to BMX and TMZ monotherapy, the cells were treated with different doses of BMX or TMZ for 24, 48, and 72 hrs. […] Following treatment, the absorption value was measured using a CCK8 kit (Targetmol, Shanghai, China) at the indicated time points. […]

COc1ccc(COc2c(/C=C/C(=O)NO)ccc(OC)c2CC=C(C)C)cc1 [BMX, (E)-2-(4-Methoxybenzyloxy)-3-prenyl-4-methoxy-N-hydroxycinamide]
cell viability (cytotoxic effect, fold): 0.88 × and 0.77 × and 0.63 ×
